According to PubChem BioAssay (NCI):
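The compound was tested at five concentrations on cells cultured in 96-well plates, with a 48-hour exposure period. TGI marks complete inhibition of growth.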

Columns and labels:
Test in all cases: inhibition of tumour cell growth, NCI panel, 48 h
SK-MEL-2 melanoma = test system: SK-MEL-2 melanoma
OVCAR-3 ovarian = test system: OVCAR-3 ovarian
SF-295 CNS = test system: SF-295 CNS
LOX IMVI melanoma = test system: LOX IMVI melanoma
MALME-3M melanoma = test system: MALME-3M melanoma
HCT-116 colon = test system: HCT-116 colon
SNB-19 CNS = test system: SNB-19 CNS
M14 melanoma = test system: M14 melanoma

SMILES	TGI (SK-MEL-2 melanoma)	TGI (OVCAR-3 ovarian)	TGI (SF-295 CNS)	TGI (LOX IMVI melanoma)	TGI (MALME-3M melanoma)	TGI (HCT-116 colon)	TGI (SNB-19 CNS)	TGI (M14 melanoma)
CN(C)c1ccc(S(=O)Nc2ccccc2)cc1 (stereo unspecified)	89.1 µM	> 100 µM	> 100 µM	> 100 µM	> 100 µM	> 100 µM	> 100 µM	> 100 µM
COc1cc(NS(C)(=O)=O)ccc1Nc1cc(C)[nH]c2ccc3nccc3c12	> 100 µM	> 100 µM	> 100 µM	> 100 µM		> 100 µM	> 100 µM	> 100 µM
COc1ccc(C2=N/C(=C\c3ccccc3)C(=O)O2)cc1	> 100 µM	> 100 µM	> 100 µM				> 100 µM	> 100 µM
CCN(CCCN(CC)C(=O)Nc1c(C)cccc1C)C(=O)Nc1c(C)cccc1C	> 100 µM		> 100 µM	> 100 µM	> 100 µM	> 100 µM	> 100 µM	> 100 µM
COc1ccc(NC(=O)CC(=O)N2N=C(N3c4ccccc4Sc4ccccc43)CC2c2ccccc2)cc1 (stereo unspecified)	> 100 µM	> 100 µM	> 100 µM			> 100 µM	> 100 µM	> 100 µM
O=C(Nc1nccs1)c1c(O)nc2sccn2c1=O	> 10 µM	> 10 µM	> 10 µM	> 10 µM	> 10 µM	> 10 µM	> 10 µM	> 10 µM
COc1cccc(CCCNC(=O)Cc2cc(OC)c(OC)cc2CO)c1	> 100 µM	> 100 µM		> 100 µM	> 100 µM	> 100 µM	> 100 µM	> 100 µM
CN(C)C1(N(C)C)Oc2c(c(=O)n(C)c(=O)n2C)C(c2ccc(Br)cc2)C1(F)F (stereo unspecified)	> 100 µM	> 100 µM	> 100 µM	> 100 µM		> 100 µM	> 100 µM	> 100 µM
O=[N+]([O-])c1ccc(Oc2c(Cl)cc(S(=O)(=O)/N=C(\NO)Nc3ccc(Cl)cc3)cc2Cl)cc1	24.1 µM	19.4 µM	27.3 µM	24.9 µM	29 µM	22.6 µM	29.2 µM	25.6 µM
CCOC(=O)Cn1c(=O)c2nc(SC)sc2n(-c2ccccc2)c1=O	> 100 µM				> 100 µM	> 100 µM	> 100 µM	> 100 µM
O=C(CC(C(=O)c1ccsc1)c1ccc2c(c1)OCO2)c1ccccc1 (stereo unspecified)		> 100 µM	> 100 µM	> 100 µM		> 100 µM		> 100 µM
CC1(C)C2CCC1(C)[C@H](n1c(=O)n([C@@H]3CC4CCC3(C)C4(C)C)c(=O)n([C@@H]3CC4CCC3(C)C4(C)C)c1=O)C2	72.7 µM	> 100 µM	> 100 µM	> 100 µM		> 100 µM		> 100 µM
CCOC(=O)c1c(C)nc2c3ccccc3c(C#N)c(C)n12	> 100 µM	> 100 µM	> 100 µM	> 100 µM		> 100 µM	> 100 µM	
Cc1ccc(C(=C2Sc3ccccc3S2)C(=C2Sc3ccccc3S2)c2ccc(C)s2)s1	> 100 µM	> 100 µM	> 100 µM		> 100 µM	> 100 µM	> 100 µM	> 100 µM
c1c[nH]c(-c2ccc(-c3ccc[nH]3)c3nsnc23)c1	> 100 µM	95.4 µM	> 100 µM	> 100 µM		> 59.8 µM	> 100 µM	> 63 µM
O=c1[nH]c(=O)n(C2OC(CO)C(O)C2O)c2nc(-c3ccc(-c4ccccc4)cc3)cnc12 (stereo unspecified)	> 100 µM		> 100 µM	> 100 µM	> 100 µM	> 100 µM	> 100 µM	> 100 µM
N#CC12C(=O)N=C(N)C1(C#N)C(c1ccco1)NC1=C2CCCC1 (stereo unspecified)	> 100 µM		> 100 µM	> 100 µM	> 100 µM	> 100 µM	> 100 µM	> 100 µM
CSC(=S)N/N=C(\C)c1ccc(S(=O)(=O)N(C)c2ccccc2)cc1	> 100 µM	> 100 µM	> 100 µM	> 100 µM	22.5 µM	> 100 µM	> 100 µM	> 100 µM
Cc1cc2c3c(nc4ccccc42)C(=O)c2ccccc2-c3n1	47.8 µM	0.906 µM	60.4 µM			75.4 µM	> 100 µM	27.3 µM
COC(=O)C1CCC(=O)N1C(c1ccc(OC)cc1)c1ccc2c(c1)OCO2 (stereo unspecified)	> 100 µM	> 100 µM	48 µM	> 100 µM	> 100 µM	> 100 µM	> 100 µM	> 100 µM
Oc1ccc([I+]c2ccccc2)cc1O		> 100 µM	> 100 µM	> 100 µM	> 100 µM	> 100 µM	> 100 µM	
COc1cccc2c(=O)oc(-c3ccc(C(C)(C)C)cc3)nc12	> 100 µM	81.8 µM	> 100 µM	53.9 µM	> 100 µM	> 100 µM	> 100 µM	> 100 µM
CCOC(=O)c1cn2c(nc1=O)N[C@H]1CCCC[C@@H]12	> 100 µM	> 100 µM	> 100 µM	> 100 µM	> 100 µM	> 100 µM	> 100 µM	> 100 µM
CC1=C[C@@H]2Cc3nc4cc(Cl)ccc4c(N)c3[C@H](C1)C2	29.7 µM	24.2 µM	20 µM	22.3 µM	24.6 µM	14.5 µM	24 µM	18.1 µM
Cc1ccc2c(c1)C(=O)C1(Cc3ccccc3C1=O)C2 (stereo unspecified)		> 100 µM	> 100 µM	> 100 µM	> 100 µM	> 100 µM	> 100 µM	> 100 µM
O=C(O)CCC(=O)OC1N=C(c2ccccc2Cl)c2cc([N+](=O)[O-])ccc2NC1=O (stereo unspecified)	> 100 µM	> 100 µM	> 100 µM	> 100 µM	> 100 µM	65.6 µM	> 100 µM	> 100 µM
CCOC(=O)c1nc2c(nc1C(=O)OCC)C(=O)c1ccccc1C2=O	1.5 µM	2.81 µM	1.55 µM		0.362 µM	4.25 µM	3.59 µM	1.55 µM

SMILES	TGI (SK-MEL-2 melanoma)	TGI (OVCAR-3 ovarian)	TGI (SF-295 CNS)	TGI (LOX IMVI melanoma)	TGI (MALME-3M melanoma)	TGI (HCT-116 colon)	TGI (SNB-19 CNS)	TGI (M14 melanoma)
C=CCSc1nnc2cc(CN3CCCC3)c(-c3ccc(Cl)cc3)nn12	34.5 µM	36 µM	53.7 µM	48.1 µM	43.2 µM	28.5 µM	71.7 µM	34.7 µM
CS(=O)(=O)OCC(CCl)(CCl)CCl		> 100 µM	> 100 µM	> 100 µM		> 100 µM	> 100 µM	> 100 µM
CC1=NN(c2cccc(Cl)c2)C2(C1=C/C=C/c1ccccc1)C(Cl)C(=O)N2c1nc2ccccc2s1 (stereo unspecified)	40.1 µM	> 80.9 µM	> 100 µM	57 µM	> 100 µM	> 86.1 µM	> 100 µM	> 91.2 µM
CCC1(CC)C(=O)NN(C(=O)c2ccccc2)C1=O	> 100 µM	> 100 µM	> 100 µM	> 100 µM	> 100 µM	> 100 µM	> 100 µM	> 100 µM
CCCCCCOc1ccc(C(=O)NOC)cc1	> 100 µM	> 100 µM	> 100 µM	> 100 µM		> 100 µM	> 100 µM	> 100 µM
Cc1c(S(=O)(=O)c2ccccc2)c(N)n(CCN(C)C)c1C	> 100 µM	> 100 µM	> 100 µM		> 100 µM	> 100 µM	> 100 µM	> 100 µM
CCN(CC)CCN(C(=Nc1ccccc1)N1CCOCC1)c1ccccc1	> 100 µM	> 100 µM	> 100 µM	> 100 µM	> 100 µM	89.8 µM	> 100 µM	> 100 µM
CCNC(=O)Cc1nc2c(N)ncnc2n1C1OC(CO)C(O)C1O (stereo unspecified)	> 100 µM	> 100 µM	> 100 µM	> 100 µM	> 100 µM	> 100 µM	> 100 µM	> 100 µM
NC1=NCC(CN2CCOCC2)O1 (stereo unspecified)	> 100 µM	> 100 µM	> 100 µM	> 100 µM	> 100 µM	> 100 µM	> 100 µM	> 100 µM
CCN(CC)CCn1c(=O)c2cccnc2n2c3c(=O)n(C)c(=O)n(C)c3nc12	> 100 µM	> 100 µM	> 100 µM		> 100 µM	> 100 µM	> 100 µM	> 100 µM
COc1ccc2c(c1)/C(=C\c1c(Cl)nc3sc(C)cn13)C(=O)N2	8.41 µM	8.83 µM	11 µM	18.1 µM	19.9 µM	14.1 µM	13.4 µM	8.89 µM
N=C(N)SCc1ccc2c(c1)Sc1ccccc1O2	15.6 µM	16.9 µM	24.2 µM	60.4 µM	23.1 µM	22.3 µM	30.6 µM	7.55 µM
O=C1NCCN1/N=C/c1c(Cl)n(-c2ccccc2)c2ccccc12	66.4 µM	> 100 µM	> 100 µM	38.9 µM	42.7 µM	45.6 µM	56.9 µM	36.8 µM
CC1=NN(c2cccc(Cl)c2)C2(SCC(=O)N2c2nc3ccccc3s2)/C1=C\c1ccccc1O (stereo unspecified)	44.2 µM	80.3 µM	> 100 µM	> 100 µM		28.2 µM		55.4 µM
CN(C)c1ccc(C(=N/N=C2\C(=O)Nc3ccccc32)c2ccc(N(C)C)cc2)cc1	2.72 µM	3.63 µM	4.13 µM	28.7 µM	> 52.1 µM	12.3 µM	> 100 µM	14.4 µM
CC1CCC(C(=O)O)(C(Br)C(=O)O)CC1 (stereo unspecified)	> 100 µM	> 100 µM	> 100 µM	> 100 µM		> 100 µM	> 100 µM	> 100 µM
Cc1nc(N)c(N2CCN([N+](=O)[O-])CC2)c(=O)[nH]1	> 100 µM	> 100 µM	> 100 µM	> 100 µM	> 100 µM	> 100 µM	> 100 µM	> 100 µM
CSC(=S)N(C)C	> 100 µM	> 100 µM	> 100 µM	> 100 µM	> 100 µM	> 100 µM	> 100 µM	> 100 µM
NS(=O)(=O)c1cc2c(cc1Cl)NC(CCC(=O)O)=NS2(=O)=O	> 100 µM	> 100 µM	> 100 µM	> 100 µM	> 100 µM	> 100 µM	> 100 µM	> 100 µM
CN1CSC(=S)N(c2c3ccccc3nc3ccc(Br)cc23)C1	29.3 µM	33.3 µM	21.2 µM	> 53.4 µM	33.2 µM	15.7 µM	26 µM	26.9 µM
O=C(O)c1ccccc1CC1Cc2ccccc2C1=O (stereo unspecified)	> 100 µM	> 100 µM	> 100 µM	> 100 µM	> 100 µM	> 100 µM	> 100 µM	> 100 µM
CC(=N/N=C/c1ccccn1)/C(C)=N/N=C(C)/C(C)=N/N=C(C)/C(C)=N/N=C(C)/C(C)=N\N=C\c1ccccn1	> 100 µM	> 100 µM	> 100 µM	> 100 µM	> 100 µM	> 100 µM	> 100 µM	> 100 µM
O=C1c2ccccc2-c2c1c(-c1ccc(F)cc1)nc1ccc3ccccc3c21	> 100 µM	> 100 µM	> 100 µM	> 100 µM	> 100 µM	> 100 µM	> 100 µM	> 100 µM
O=c1c2sc(=S)n(-c3ccc(F)cc3)c2ncn1/N=C/c1ccc(F)cc1F	85.6 µM	61.5 µM	65.8 µM	> 100 µM	41.6 µM	> 100 µM	62.6 µM	67.4 µM
CCOC(=O)c1ccc(NCC#CCN2CCOCC2)cc1	> 100 µM	> 100 µM		> 100 µM	> 100 µM	> 100 µM	> 100 µM	> 100 µM
COc1cccc2c1OC1(C=C2)Oc2ccccc2C(=O)N1C (stereo unspecified)	> 100 µM	> 100 µM	97.9 µM	14.5 µM		> 100 µM	> 100 µM	> 100 µM
Cc1ccc(-c2[nH]c(=O)n(C3OC(CO)C(O)C(O)C3O)c(=O)c2C#N)cc1 (stereo unspecified)	> 100 µM	> 100 µM	> 100 µM			> 100 µM	> 100 µM	> 100 µM
